Assay results: PubChem BioAssay AID330 (DTP/NCI, 2004)
Values joined by “and” are separate entries in the source; they are usually repeats but may differ in a detail not shown here. Identical values can stand only once. Toxic doses and inconclusive results are not listed. The calls were made as follows: active = survival T/C of 150% or more; inactive = T/C below 125% in these data.

Tested on: P388 leukemia ip, CD2F1 mice, survival T/C
Assay: NCI In Vivo Anticancer Drug Screen. Data for tumor model P388 Leukemia (intraperitoneal) in CD2F1 (CDF1) mice
Details: endpoint: median survival time, higher = longer survival
Protocol: The antitumor activity of compounds was measured in mice bearing transplantable tumors. Survival or tumor size were measured and the results are expressed as the measurement made in the treated group (T) divided by the measurement made in the vehicle treated control group (C). The tumor model used in this assay is P388 Leukemia (intraperitoneal) in CD2F1 (CDF1) mice

[1] = dose: 50.0 mg/kg/injection, schedule: Q01DX009 (ip), vehicle: saline with Tween-80
[2] = dose: 100.0 mg/kg/injection, schedule: Q01DX009 (ip), vehicle: saline with Tween-80
[3] = dose: 25.0 mg/kg/injection, schedule: Q01DX009 (ip), vehicle: saline
[4] = dose: 50.0 mg/kg/injection, schedule: Q01DX009 (ip), vehicle: saline
[5] = dose: 100.0 mg/kg/injection, schedule: Q04DX002 (ip), vehicle: saline with Tween-80

Measured: T/C

Clc1ccc2sc(-c3ccccc3)nc2c1
inactive: [1] 106 % of control | [2] 103 % of control | dose: 200.0 mg/kg/injection, schedule: Q01DX009 (ip), vehicle: saline with Tween-80 100 % of control | dose: 400.0 mg/kg/injection, schedule: Q01DX009 (ip), vehicle: saline with Tween-80 100 % of control

CCCOC(=O)/C=C/C(=O)N1CC(C)N(C(=O)/C=C/C(=O)OCCC)CC1C (stereo unspecified)
inactive: dose: 50.0 mg/kg/injection, schedule: Q01DX005 (ip), vehicle: Klucel (hydroxypropylcellulose) (HPC) 109 % of control | dose: 100.0 mg/kg/injection, schedule: Q01DX005 (ip), vehicle: Klucel (hydroxypropylcellulose) (HPC) 98 % of control | dose: 200.0 mg/kg/injection, schedule: Q01DX005 (ip), vehicle: Klucel (hydroxypropylcellulose) (HPC) 98 % of control

CC(C)(C)OC(=O)NC(CCCN=C(N)N)C(=O)O (stereo unspecified)
inactive: dose: 50.0 mg/kg/injection, schedule: Q01DX005 (ip), vehicle: saline 100 % of control | dose: 100.0 mg/kg/injection, schedule: Q01DX005 (ip), vehicle: saline 94 % of control | dose: 200.0 mg/kg/injection, schedule: Q01DX005 (ip), vehicle: saline 100 % of control

CCOC(=O)c1[nH]c(=S)n(-c2ccccc2)c1C(=O)OCC
inactive: dose: 6.25 mg/kg/injection, schedule: Q01DX009 (ip), vehicle: saline with Tween-80 101 % of control | dose: 12.5 mg/kg/injection, schedule: Q01DX009 (ip), vehicle: saline with Tween-80 110 % of control | dose: 25.0 mg/kg/injection, schedule: Q01DX009 (ip), vehicle: saline with Tween-80 111 % of control | [1] 101 % of control

C=C1C=[n+]2ccccc2=N1
inactive: [3] 93 % of control | [4] 96 % of control

O=C(O)c1ccccc1N=N/C(=N\Nc1ccccc1C(=O)O)c1cccc2cccnc12
inactive: dose: 100.0 mg/kg/injection, schedule: Q04DX003 (ip), vehicle: saline with Tween-80 103 % of control | dose: 200.0 mg/kg/injection, schedule: Q04DX003 (ip), vehicle: saline with Tween-80 106 % of control | dose: 400.0 mg/kg/injection, schedule: Q04DX003 (ip), vehicle: saline with Tween-80 97 % of control

CC1(Cc2ccccc2)N=C1c1ccccc1 (stereo unspecified)
inactive: [5] 106 % of control | dose: 200.0 mg/kg/injection, schedule: Q04DX002 (ip), vehicle: saline with Tween-80 103 % of control

COc1ccc2c(=O)cc(-c3ccccc3)[nH]c2c1
inactive: dose: 12.5 mg/kg/injection, schedule: Q01DX009 (ip), vehicle: saline 90 % of control | [3] 98 % of control | [4] 114 % of control | dose: 65.0 mg/kg/injection, schedule: Q01DX009 (ip), vehicle: saline 118 % of control | dose: 100.0 mg/kg/injection, schedule: Q01DX009 (ip), vehicle: saline 117 % of control and 118 % of control | dose: 200.0 mg/kg/injection, schedule: Q01DX009 (ip), vehicle: saline 99 % of control

CCC[CH2][Sn]1([CH2]CCC)[O]OC(c2ccc(C)cc2)[O]1 (stereo unspecified)
inactive: dose: 0.19 mg/kg/injection, schedule: Q01DX009 (ip), vehicle: saline with Tween-80 102 % of control | dose: 0.38 mg/kg/injection, schedule: Q01DX009 (ip), vehicle: saline with Tween-80 94 % of control | dose: 0.75 mg/kg/injection, schedule: Q01DX009 (ip), vehicle: saline with Tween-80 116 % of control

CC(=O)Cc1nc2ccccc2s1
inactive: dose: 25.0 mg/kg/injection, schedule: Q04DX002 (ip), vehicle: saline with Tween-80 104 % of control | dose: 50.0 mg/kg/injection, schedule: Q04DX002 (ip), vehicle: saline with Tween-80 107 % of control | [5] 102 % of control

Clc1n[nH]c(Cl)n1
inactive: [2] 95 % of control

COc1ccccc1C(Nc1nncs1)Nc1nncs1
inactive: dose: 60.0 mg/kg/injection, schedule: Q01DX005 (ip), vehicle: saline with Tween-80 106 % of control | dose: 120.0 mg/kg/injection, schedule: Q01DX005 (ip), vehicle: saline with Tween-80 97 % of control

O=C(Nc1ccccc1Cl)OCC(CCl)(CCl)CCl
inactive: dose: 50.0 mg/kg/injection, schedule: Q01DX009 (ip), vehicle: Klucel (hydroxypropylcellulose) (HPC) 100 % of control | dose: 100.0 mg/kg/injection, schedule: Q01DX009 (ip), vehicle: Klucel (hydroxypropylcellulose) (HPC) 106 % of control | dose: 200.0 mg/kg/injection, schedule: Q01DX009 (ip), vehicle: Klucel (hydroxypropylcellulose) (HPC) 95 % of control

S=c1c2ccccc2c(=S)n(-c2ccccc2)n1-c1ccccc1
inactive: dose: 60.0 mg/kg/injection, schedule: Q01DX005 (ip), vehicle: Klucel (hydroxypropylcellulose) (HPC) 91 % of control | dose: 120.0 mg/kg/injection, schedule: Q01DX005 (ip), vehicle: Klucel (hydroxypropylcellulose) (HPC) 94 % of control | dose: 240.0 mg/kg/injection, schedule: Q01DX005 (ip), vehicle: Klucel (hydroxypropylcellulose) (HPC) 92 % of control

[N-]=[N+]=CC(=O)C1(c2ccccc2)OC1c1ccccc1 (stereo unspecified)
inactive: dose: 25.0 mg/kg/injection, schedule: Q01DX005 (ip), vehicle: saline with Tween-80 91 % of control | dose: 50.0 mg/kg/injection, schedule: Q01DX005 (ip), vehicle: saline with Tween-80 86 % of control | dose: 100.0 mg/kg/injection, schedule: Q01DX005 (ip), vehicle: saline with Tween-80 94 % of control | dose: 200.0 mg/kg/injection, schedule: Q01DX005 (ip), vehicle: saline with Tween-80 86 % of control
